Measurements as given in patent US9790191B2, “Substituted acylaminopyrimidines as inducers of alpha interferon production” (JANSSEN SCIENCES IRELAND UC, priority 2012, dated 2017).

Legend:
CXCL10 mRNA = assay: Up-regulation of CXCL10 mRNA in vivo after oral administration (RT-qPCR); set-up: species or system C57BL/6 mice; settings: mice
Description: (§1) Production of IFN-α and Up-Regulation of CXCL10 mRNA In Vivo
(§2) The potential of compounds to induce IFN-α production and CXCL10 mRNA up-regulation in vivo was evaluated after oral administration to C57BL/6 mice. The quantity of IFN-α in systemic circulation was followed over time, using a murine pan-IFN-α ELISA (PBL InterferonSource, ref. 42120). This ELISA recognizes all murine IFN-α subtypes. […] CXCL10 mRNA expression levels were followed by RT-qPCR.
For each compound and dose tested, 3 female C57BL/6J mice, from 6-10 weeks of age, 20-22 g of body weight were tested. Animals were given compound 1 as a single oral dose of 15.5 mg/kg as a 1.55 mg/mL solution in 20% aqueous hydroxypropyl β-cyclodextrin vehicle using a feeding tube. 0.5, 1, 2, 4 and 7 hours after dosing, systemic blood was drawn from the tail vein into K-EDTA containing tubes. […] At each time point, the median and standard deviation over the 3 animals was calculated to evaluate the potency of the compound.
Blood was also drawn from the tail vein into micronic tubes containing 500 μl of PAXgene solution (PAXgene blood RNA tubes from PreAnalytix). […] The ΔΔCt method (for relative quantification) was used to evaluate regulation of CXCL10 expression by the compound compared to the vehicle control. At each time point, the median and standard deviation over the 3 animals was calculated to evaluate the potency of the compounds.

IFN-α = assay: Production of IFN-α in vivo after oral administration (murine pan-IFN-α ELISA); set-up: species or system C57BL/6 mice; settings: mice
Description: as §1, §2
For each compound and dose tested, 3 female C57BL/6J mice, from 6-10 weeks of age, 20-22 g of body weight were tested. Animals were given compound 1 as a single oral dose of 15.5 mg/kg as a 1.55 mg/mL solution in 20% aqueous hydroxypropyl β-cyclodextrin vehicle using a feeding tube. 0.5, 1, 2, 4 and 7 hours after dosing, systemic blood was drawn from the tail vein into K-EDTA containing tubes. Plasma was separated from blood cells by centrifugation at 1500 g, 10 min, 4° C. and stored at −80° C. prior to ELISA analysis. At each time point, the median and standard deviation over the 3 animals was calculated to evaluate the potency of the compound.

CCCC[C@@H](CCOC(=O)C(C)C)Nc1nc(NC(=O)C(C)C)ncc1OC [Compound 1]
observed: upregulation of CXCL10 (CXCL10 mRNA; blood, single oral dose of 15.5 mg/kg (FIG. 2B)) | upregulation of CXCL10 (CXCL10 mRNA; liver, single oral dose of 15.5 mg/kg (FIG. 2A)) | Induction of endogenous interferon (IFN-α; liver, single oral dose of 15.5 mg/kg (FIG. 1A)) | Induction of endogenous interferon (IFN-α; plasma, single oral dose of 15.5 mg/kg (FIG. 1B))
